According to article PMC9101188, “Human α-Defensin-6 Neutralizes Clostridioides difficile Toxins TcdA and TcdB by Direct Binding” (International Journal of Molecular Sciences, 2022):
No end group written: not given here.

What was measured:
TcdB autoprotease domain = experiment: In vitro autoprocessing of TcdB (InsP6-induced autoprotease activity); format: biochemical, C. difficile VPI 10463; settings: NEM 1 mM; TcdB 2 µg, InsP6 1 mM; 1 h, 37 °C, pH 7.4 (n = 2)
Description: (§1) The flow rate was 25 µL/min. […] A representative gel is shown (n = 2). […] GAPDH served as the loading control. A representative Western blot is shown.
The effects of α-def-6 on TcdB autoprocessing by its intrinsic cysteine protease activity were analyzed. […] Inositol hexakisphosphate (1 mM, Santa Cruz Biotechnology, Dallas, TX, USA) was added to the samples to induce autoprocessing. N-Ethylmaleimide (1 mM, Sigma Aldrich by Merck KGaA, Darmstadt, Germany) served as positive control for the inhibition of TcdB-autoprocessing. The reactions were stopped by addition of a Laemmli buffer and heat denaturation (95 °C). For the analysis, the samples were electrophoresed on 8% SDS polyacrylamide gels, and proteins were visualized by Coomassie staining.

glucosyltransferase = settings: control in UDP-Glo assay at 10 mM; ref [29]; cited from earlier work
Description: Based on the finding that TcdB directly binds to α-def-6 in vitro, a set of experiments was performed to investigate the consequences of this interaction for TcdB. Although α-def-6 and TcdB interact directly, the release of the glucosyltransferase domain by the autoprotease domain in the presence of inositol hexakisphosphate (InsP6) was not affected (Figure 1B).

zebrafish embryos = settings: in vivo
TcdA, TcdB and CDT = settings: ref [25],[26]; cited from earlier work
Text: (§2) The benchmark for treating CDIs is still the use of some specific antibiotics such as vancomycin, metronidazole or fidaxomicin [20]. More and more attention is also being paid to the direct inactivation of the secreted toxins, for example by using anti-toxin-antibodies such as bezlotoxumab or actoxumab. Following the approach of directly inactivating the secreted toxins and based on previous findings of our group and of others, we investigated the effects of human endogenous antimicrobial peptides on the C. difficile toxins TcdA and TcdB. Here, of particular interest is the group ...

bacterial protein toxins = settings: ref [51]; cited from earlier work
Text: There is increasing evidence that α-def-6 represents an outlier among the α-defensins, which is also noticeable in the context of bacterial toxins. Anti-toxin activities have already been described for several α-defensins.

[1] = system: bacterial toxins including TcdB; settings: cited from earlier work
TcdB [2] = settings: SPR, β-def-1 6 µM (control); pH 7.0, 25 °C, 25 µL/min, 4 min injection
Description: (A) 2400 RUs of biotinylated TcdB were immobilized via streptavidin-biotin binding onto a streptavidin sensor chip, and α-def-6 (concentrations as indicated) was applied to the chip for 4 min followed by a dissociation phase with a flow of running buffer. A solution of 6 µM of α-def-6 was injected twice to assess reproducibility, and β-def-1 (6 µM) served as a control. The flow rate was 25 µL/min.
TcdB was biotinylated via EZ-Link^TM Sulfo-NHS-Biotin (Thermo Fisher Scientific, Waltham, MA, USA) according to the manufacturer’s protocol. Briefly, TcdB was incubated with Sulfo-NHS-Biotin for 30 min at room temperature (RT). To remove the excess non-reacted biotin, TcdB was rebuffered with a Zeba^TM Spin Desalting Column (Thermo Fisher Scientific, Waltham, MA, USA). The successful biotinylation was verified via Western blotting and detection with peroxidase-conjugated streptavidin (1:2500, F. Hoffmann-La Roche AG, Basel, Switzerland).
The binding of α-def-6 to biotinylated TcdB was analyzed via surface plasmon resonance spectroscopy (SPR) with a Reichert SPR7500DC SPR spectrometer (Reichert Technologies, Buffalo, NY, USA). All analytes were dialyzed in running buffer (10 mM HEPES, 150 mM NaCl, 50 µM EDTA, 0.005% (v/v) Tween®20, pH 7.0) beforehand. Experiments were performed with a flow rate of 25 µL/min at 25 °C. […]

bacteria = settings: ref [46]; cited from earlier work
Text: as §2, with “TcdB. […] The administration” for “TcdB. Here,”, “of α-def-6 protected human cells from TcdB, but also from” for “of particular interest is”, “the closely related TcdA and the clinically more relevant combination of both TcdA and TcdB. Exemplarily, the protective effect could be confirmed for TcdB in vivo using the zebrafish embryo” for “the group”

TcdB [3] = settings: ref [24]; cited from earlier work
TcdB glucosyltransferase = experiment: UDP-Glo glucosyltransferase assay; format: biochemical, C. difficile VPI 10463; settings: TcdB 200 pM, recombinant Rac1 5 µM, UDP-glucose 100 µM, 1 h, 37 °C, pH 7.5, luminescence (n ≥ 3)
Description: as §1
UDP-Glo™ Glucosyltransferase assay with UDP-Glucose (Promega Corporation, Madison, WI, USA) was performed according to the manufacturer’s protocol. Briefly, TcdB (200 pM) was incubated in glucosylation buffer (50 mM HEPES, 100 mM KCl, 2 mM MgCl2, 1 mM MnCl2, 100 mg/L BSA, pH 7.5) with various concentrations of the respective inhibitors in a final volume of 40 µL. 5 µM recombinant Rac1 was included in the samples as a substrate. […] Castanospermine (10 mM, Santa Cruz Biotechnology, Dallas, TX, USA) served as control for inhibition of glucosyltransferase activity of TcdB. To stop the reaction, three times 10 µL of each sample were transferred to a white half area 96 well microplate (Greiner Bio-One International GmbH, Kremsmünster, Austria) combined with 10 µL of UDP Detection Reagent and mixed at 1000 rpm for 30 s on a plate shaker (Titramax 1000, Heidolph Instruments GmbH & Co. KG, Schwabach, Germany). Luminescence was recorded after 15–60 min via a Tecan infinite M1000 Pro plate reader (Tecan, Männdorf, Switzerland) with an integration time of 750 ms.

## CCN1C(=O)C=CC1=O [NEM, N-ethylmaleimide, reference compound]
TcdB autoprotease domain
  autocatalytic processing of TcdB (effect of control inhibitor): prevented the autocatalytic processing of TcdB

## O[C@H]1[C@H](O)[C@@H](O)CN2CC[C@H](O)[C@H]12 [castanospermine]
glucosyltransferase
  inhibition of glucosyltransferase: established glucosyltransferase inhibitor

## Abamectin [reference compound]
Zebrafish embryos
  neurotoxicity: causes neurotoxicity

## α-defensin-1: human neutrophil peptide 1, α-defensin cited from earlier work [reference compound]
TcdA, TcdB and CDT
  inactivation of TcdA, TcdB and CDT: inactivate TcdA and CDT, in addition to TcdB
Bacterial protein toxins
  destabilization of toxin secondary and tertiary structures (local unfolding): leads to the destabilization of secondary and tertiary structures

## β-def-1: β-defensin used as control to exclude non-specific interactions; purchased from Pepta Nova (DHYNCVSSGGQCLYSACPIFTKIQGTCYRGKAKCCK; ends and bridges not checked; cysteine pairing not given here) [reference compound]
[1]
  interaction with bacterial toxins including TcdB: do not interact with bacterial toxins including TcdB
TcdB [2]
  interaction with immobilized TcdB, compared to α-def-6: much weaker in combination with a faster washout

B1: α-def-5: structurally similar defensin; purchased from Pepta Nova (peptide, UniProt Q01523 20-94, looked up)
Defensin alpha 5: ESLQERADEATTQKQSGEDNQDLAISFAGNGLSALRTSGSQARATCYCRTGRCATRESLSGVCEISGRLYRLCCR
modifications: Defensin-5
notes: structurally similar defensin; purchased from Pepta Nova
bacteria
  biocidal / antimicrobial activity: significant biocidal activity against invading pathogens
TcdB [3]
  inhibition of glucosyltransferase and glucosylhydrolase activity of TcdB: directly inhibits the glucosyltransferase and glucosylhydrolase activity of TcdB
TcdA, TcdB and CDT
  inactivation of TcdA, TcdB and CDT: inactivate TcdA and CDT, in addition to TcdB
TcdB glucosyltransferase
  inhibition of glucosyltransferase activity of TcdB: clear concentration-dependent reduction of glucosyltransferase activity
